Read-outs that look alike come from different tables or passages of the source.
How the values were obtained:
Thromboxane Synthetase [1] = conditions: cited from earlier work
Thromboxane Biosynthesis = test: Inhibition of thromboxane biosynthesis; format: biochemical; set-up: % Inhibition of Thromboxane Biosynthesis: unit of the concentration uncertain; conditions: for % INHIBITION (Inhibition of Thromboxane Biosynthesis): concentration of 100 mg/ml (Table 2)
Excerpt: A comparison of the inhibition of thromboxane biosynthesis between imidazole and Burimamide was made.
A number of structurally related compounds including other H2 blockers were compared for inhibition of thromboxane activity.

H2-receptor = conditions: cited from earlier work
[2] = test system: histamineinduced gastric acid secretion; conditions: cited from earlier work
Thromboxane Synthetase [3] = conditions: human platelets; cited from earlier work
[4] = concentration 0.5 (unit uncertain)
[5] = concentration 1 (unit uncertain)
[6] = concentration 2 (unit uncertain)
[7] = concentration 5 (unit uncertain)
[8] = concentration 10 (unit uncertain)
[9] = concentration 20 (unit uncertain)
[10] = concentration 50 (unit uncertain)

## Cn1ccnc1 [1-methyl imidazole]
Thromboxane Synthetase [1]
  inhibition of thromboxane biosynthesis, in words: potent inhibitor of thromboxane biosynthesis

## NCCc1ccccn1 [2-(2-pyridyl) Ethylamine]
Thromboxane Biosynthesis
  % INHIBITION (Inhibition of Thromboxane Biosynthesis): 20%

## NCCc1nccs1 [2-(2-thiazolyl) Ethylamine]
Thromboxane Biosynthesis
  % INHIBITION (Inhibition of Thromboxane Biosynthesis): 19%

## Cc1[nH]cnc1CCN [4-Methylhistamine]
Thromboxane Biosynthesis
  % INHIBITION (Inhibition of Thromboxane Biosynthesis): 0%

## CNC(=S)NCCCCc1c[nH]cn1 [Burimamide, N-methyl-N'-[4-(imidazole-4-yl)butyl] thiourea]
H2-receptor
  pharmacologic activity at H2-receptor, in words: H2 -receptor blocker
[2]
  histamine-induced gastric acid secretion, in words: inhibit histamineinduced gastric acid secretion
Thromboxane Biosynthesis
  thromboxane biosynthesis inhibition, in words: potent, selective blocker of thromboxane biosynthesis
  % INHIBITION (Inhibition of Thromboxane Biosynthesis): 100%
Thromboxane Biosynthesis; concentration 100 mg/ml (Table 1)
  % Inhibition of Thromboxane Biosynthesis: 98%
Thromboxane Biosynthesis; [4]
  % Inhibition of Thromboxane Biosynthesis: 15%
Thromboxane Biosynthesis; [5]
  % Inhibition of Thromboxane Biosynthesis: 21%
Thromboxane Biosynthesis; [6]
  % Inhibition of Thromboxane Biosynthesis: 36%
Thromboxane Biosynthesis; [7]
  % Inhibition of Thromboxane Biosynthesis: 47%
Thromboxane Biosynthesis; [8]
  % Inhibition of Thromboxane Biosynthesis: 58%
Thromboxane Biosynthesis; [9]
  % Inhibition of Thromboxane Biosynthesis: 73%
Thromboxane Biosynthesis; [10]
  % Inhibition of Thromboxane Biosynthesis: 86%

## CNC(=NC#N)NCCSCc1[nH]cnc1C [Cimetidine]
Thromboxane Biosynthesis
  thromboxane biosynthesis inhibition, in words: only minor thromboxane inhibitory activity
  % INHIBITION (Inhibition of Thromboxane Biosynthesis): 19%

## Clc1cccc(Cl)c1NC1=NCCN1 [Clonidine]
Thromboxane Biosynthesis
  % INHIBITION (Inhibition of Thromboxane Biosynthesis): 0%

## CN(C)CCCSC(=N)N [Dimaprit]
Thromboxane Biosynthesis
  % INHIBITION (Inhibition of Thromboxane Biosynthesis): 35%

## NCCc1c[nH]cn1 [Histamine]
Thromboxane Biosynthesis
  % INHIBITION (Inhibition of Thromboxane Biosynthesis): 17%

## c1c[nH]cn1 [Imidazole]
Thromboxane Biosynthesis
  thromboxane biosynthesis inhibition, in words: only compound comparable in inhibition of thromboxane biosynthesis
Thromboxane Biosynthesis; [4]
  % Inhibition of Thromboxane Biosynthesis: 0%
Thromboxane Biosynthesis; [5]
  % Inhibition of Thromboxane Biosynthesis: 25%
Thromboxane Biosynthesis; [6]
  % Inhibition of Thromboxane Biosynthesis: 53%
Thromboxane Biosynthesis; [7]
  % Inhibition of Thromboxane Biosynthesis: 68%
Thromboxane Biosynthesis; [8]
  % Inhibition of Thromboxane Biosynthesis: 81%
Thromboxane Biosynthesis; [9]
  % Inhibition of Thromboxane Biosynthesis: 89%
Thromboxane Biosynthesis; [10]
  % Inhibition of Thromboxane Biosynthesis: 88%
Thromboxane Synthetase [3]
  inhibition of thromboxane biosynthesis, in words: selective inhibitor of thromboxane biosynthesis

## N[C@@H](Cc1c[nH]cn1)C(=O)O [L-Histidine]
Thromboxane Biosynthesis
  % INHIBITION (Inhibition of Thromboxane Biosynthesis): 17%

## c1ccc([C@H]2CN3CCSC3=N2)cc1 [Levamisole]
Thromboxane Biosynthesis
  % INHIBITION (Inhibition of Thromboxane Biosynthesis): 6%

## CNC(=S)NCCSCc1[nH]cnc1C [Metiamide]
Thromboxane Biosynthesis
  thromboxane biosynthesis inhibition, in words: only minor thromboxane inhibitory activity
  % INHIBITION (Inhibition of Thromboxane Biosynthesis): 33%

## CC(=O)NCCc1c[nH]cn1 [N-acetyl Histamine]
Thromboxane Biosynthesis
  % INHIBITION (Inhibition of Thromboxane Biosynthesis): 26%

## CC(=O)N[C@@H](Cc1c[nH]cn1)C(=O)O [N-acetyl Histidine]
Thromboxane Biosynthesis
  % INHIBITION (Inhibition of Thromboxane Biosynthesis): 0%

From patent US4228176A, “Thromboxane inhibition with burimamide” (Nelson Research & Development Company, priority 1979, dated 1980)
